Laboratory results from the supplement of paper PMC8671470.

What was measured:
Test in all cases: cell viability (% survival relative to DMSO control, bortezomib = 0%); higher = less cytotoxic
Conditions in all cases: 72 h
MV4-11 = tested on: MV4-11
How it was run: (§1)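 Percent survival figures are means of duplicate wells. They were obtained by CellTiter-Glo luminescence after 10 AML and 5 CML cell lines spent 72 h at 37 °C with 5% CO2 in 384-well plates with compounds at 1, 10, 100, 1000 or 10000 nM. Vehicle was set to 100% and a 10 µM positive control to 0%.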

HEL = tested on: HEL
How it was run: as §1

THP-1 = tested on: THP-1
How it was run: as §1

NOMO-1 = tested on: NOMO-1
How it was run: as §1

| SMILES | cell viability (MV4-11; 1 nM) [%] | cell viability (MV4-11; 10 nM) [%] | cell viability (MV4-11; 100 nM) [%] | cell viability (MV4-11; 1000 nM) [%] | cell viability (MV4-11; 10000 nM) [%] | cell viability (HEL; 1 nM) [%] | cell viability (HEL; 10 nM) [%] | cell viability (HEL; 100 nM) [%] | cell viability (HEL; 1000 nM) [%] | cell viability (HEL; 10000 nM) [%] | cell viability (THP-1; 1 nM) [%] | cell viability (THP-1; 10 nM) [%] | cell viability (THP-1; 100 nM) [%] | cell viability (THP-1; 1000 nM) [%] | cell viability (THP-1; 10000 nM) [%] | cell viability (NOMO-1; 1 nM) [%] | cell viability (NOMO-1; 10 nM) [%] | cell viability (NOMO-1; 100 nM) [%] | cell viability (NOMO-1; 1000 nM) [%] | cell viability (NOMO-1; 10000 nM) [%] |
| --- | --- | --- | --- | --- | --- | --- | --- | --- | --- | --- | --- | --- | --- | --- | --- | --- | --- | --- | --- | --- |
| O=C1Oc2ccccc2C(=O)C1CC1C(=O)Oc2ccccc2C1=O (stereo not given) [Dicumarol] | 89.7 | 111 | 87 | 97.5 | 93.6 | 109 | 102 | 92 | 101 | 107 | 100 | 102 | 96.3 | 103 | 94.2 | 99.4 | 101 | 98.8 | 109 | 96.3 |
| CC12CCC(O)CC1CCC1C2CCC2(C)C(C3=CC(=O)OC3)CCC12O (stereo not given) [Digitoxigenin] | 96.8 | 120 | 100 | 1.01 | -1.41 | 102 | 99.1 | 103 | 1.26 | -1.18 | 108 | 104 | 77 | 18.9 | -0.987 | 110 | 96 | 109 | 11.3 | -1.17 |
| C[C@H]1O[C@@H](O[C@H]2[C@@H](O)C[C@H](O[C@H]3[C@@H](O)C[C@H](O[C@H]4CC[C@@]5(C)[C@H](CC[C@@H]6[C@@H]5C[C@@H](O)[C@]5(C)[C@@H](C7=CC(=O)OC7)CC[C@]65O)C4)O[C@@H]3C)O[C@@H]2C)C[C@H](O)[C@@H]1O [Digoxin] | 110 | 114 | 4.71 | 0.26 | 0.435 | 97.3 | 92.9 | 49 | -0.296 | -0.0735 | 85.8 | 95.6 | 32.6 | 0.766 | -0.172 | 97.9 | 105 | 60.3 | -0.211 | -0.0253 |
| O=c1c2ccccc2[se]n1-c1ccccc1 [Ebselen] | 93 | 92.5 | 93.8 | 99.7 | 68 | 102 | 97.3 | 106 | 96.5 | 81.8 | 94.9 | 95.1 | 93 | 98.7 | 81.8 | 93.7 | 103 | 97.3 | 94.3 | 102 |
| Clc1ccc(COC(Cn2ccnc2)c2ccc(Cl)cc2Cl)cc1 (stereo not given) [Econazole] | 103 | 83.4 | 89.3 | 57.4 | 25.2 | 106 | 90.4 | 99.1 | 99 | 77.3 | 102 | 94.9 | 95.7 | 87.9 | 62 | 105 | 84.8 | 98.2 | 93.2 | 89.1 |
| C#Cc1cnc(O)nc1O [Eniluracil] | 102 | 112 | 104 | 108 | 106 | 100 | 92.2 | 118 | 90.1 | 106 | 97.4 | 102 | 109 | 110 | 102 | 96.4 | 103 | 101 | 104 | 109 |
| CC(/C=C1\SC(=S)N(CC(=O)O)C1=O)=C\c1ccccc1 [Epalrestat] | 95.3 | 85.8 | 103 | 102 | 110 | 120 | 94.8 | 99.5 | 95.5 | 112 | 101 | 95.6 | 115 | 102 | 103 | 108 | 101 | 93.4 | 102 | 103 |
| CCOC(=O)[C@@]1(CCCCCCOc2ccc(Cl)cc2)CO1 [Etomoxir] | 105 | 97.2 | 99 | 85.3 | 79.3 | 105 | 99.6 | 105 | 93.3 | 84.5 | 98.3 | 105 | 97.3 | 96.4 | 102 | 99.5 | 101 | 104 | 92.1 | 102 |
| Cc1c(-c2ccccc2)oc2c(C(=O)OCCN3CCCCC3)cccc2c1=O.Cl [Flavoxate] | 87.5 | 83.6 | 97.9 | 94.8 | 98.6 | 91 | 105 | 107 | 95.3 | 100 | 93.5 | 97.7 | 93.5 | 96.6 | 109 | 93.8 | 105 | 99.3 | 97.1 | 99.6 |
| O=C(O)CCc1ccc(NCc2cccc(Oc3ccccc3)c2)cc1 [GW9508] | 98.2 | 98.7 | 103 | 103 | 106 | 112 | 105 | 101 | 109 | 104 | 95.1 | 101 | 104 | 111 | 111 | 92.8 | 96.6 | 108 | 108 | 104 |
| c1ccc2c(c1)OCC(=C1NCCN1)O2 [Idazoxan] | 82.3 | 106 | 80.6 | 82.9 | 89.1 | 96.4 | 112 | 85.6 | 95.1 | 90.4 | 104 | 107 | 83.3 | 91.4 | 103 | 98.9 | 104 | 94.4 | 92.2 | 89.3 |
| C[C@]12O[C@H](C[C@]1(O)CO)n1c3ccccc3c3c4c(c5c6ccccc6n2c5c31)CNC4=O [Lestaurtinib] | 73.6 | 7.97 | -0.544 | 0.552 | 0.212 | 95.5 | 90.4 | 33.2 | 19.1 | 4.54 | 94.4 | 105 | 87.2 | 46 | 0.505 | 100 | 92.3 | 68.1 | 9.73 | 0.0124 |
| O=C(O)c1nn(Cc2ccc(Cl)cc2Cl)c2ccccc12 [Lonidamine] | 78.5 | 96.2 | 88.9 | 98.1 | 106 | 102 | 111 | 120 | 99.5 | 106 | 107 | 97 | 102 | 99.3 | 101 | 96.7 | 99.9 | 107 | 106 | 105 |
| C1CCc2nnc(C34CC5CC(CC(C5)C3)C4)n2CC1 [MERCK-544] | 97.8 | 100 | 102 | 87.3 | 106 | 104 | 106 | 95.2 | 92.4 | 132 | 102 | 107 | 93.7 | 102 | 91.1 | 102 | 95.8 | 89.3 | 97.4 | 109 |
| CC(Cc1ccc(O)c(O)c1)C(C)Cc1ccc(O)c(O)c1 (stereo not given) [Masoprocol] | 108 | 91.6 | 92.5 | 97.2 | 9.84 | 114 | 106 | 137 | 114 | 79.8 | 95.4 | 98.4 | 96.2 | 93.4 | 85.9 | 97 | 104 | 101 | 111 | 56.2 |
| CC(C(=O)O)C(=O)O [Methylmalonate] | 94.7 | 80.3 | 107 | 97.1 | 102 | 87.5 | 100 | 109 | 81.5 | 95.3 | 98.5 | 94.5 | 101 | 103 | 87.6 | 95.4 | 94.6 | 97.2 | 94 | 96.1 |
| COc1c(C)c2c(c(O)c1C/C=C(\C)CCC(=O)O)C(=O)OC2 [Mycophenolic acid] | 103 | 94.5 | 90.7 | 26.5 | -0.47 | 94.5 | 108 | 104 | 51.7 | 3.56 | 112 | 95.7 | 103 | 97.5 | 59.2 | 103 | 96.6 | 106 | 89.2 | 24.7 |
| C1CCC(C(CC2CCCCN2)C2CCCCC2)CC1.O=C(O)/C=C\C(=O)O (stereo not given) [Perhexiline] | 100 | 101 | 95.3 | 91.8 | 0.781 | 108 | 82.7 | 108 | 91.3 | 14.1 | 101 | 93.8 | 100 | 89 | -0.129 | 91.6 | 82.6 | 88.7 | 94.9 | 25.9 |
| OCCN1CCN(CCCN2c3ccccc3Sc3ccc(Cl)cc32)CC1 [Perphenazine] | 102 | 96 | 93.4 | 92.8 | 9.41 | 120 | 107 | 90.1 | 108 | 107 | 95.7 | 99.2 | 103 | 99.1 | 50.2 | 112 | 93.1 | 106 | 108 | 56.9 |
| C=CCc1ccc2c(c1O)C(=O)c1ccccc1C2=O [R162] | 100 | 97.4 | 102 | 130 | 121 | 104 | 101 | 103 | 106 | 110 | 101 | 99.1 | 102 | 109 | 109 | 99 | 92.1 | 96.2 | 105 | 100 |
| O=C(c1ccc(OCCN2CCCCC2)cc1)c1c(-c2ccc(O)cc2)sc2cc(O)ccc12 [Raloxifene] | 93.9 | 102 | 85.4 | 93.3 | 58.9 | 90.2 | 97.7 | 96.3 | 98.4 | 87.4 | 94.5 | 97 | 96.5 | 105 | 93.5 | 100 | 95.8 | 99.3 | 100 | 86.5 |
| NC(=O)c1ncn([C@@H]2O[C@H](CO)[C@@H](O)[C@H]2O)n1 [Ribavirin] | 110 | 92.1 | 89.8 | 137 | 81.8 | 92.5 | 104 | 111 | 113 | 112 | 96.5 | 103 | 107 | 107 | 112 | 99 | 102 | 103 | 106 | 103 |
| Nc1ncnc2c1ncn2[C@@H]1O[C@H](CSCC[C@H](N)C(=O)O)[C@@H](O)[C@H]1O [S-Adenosyl Homocysteine] | 110 | 113 | 91.8 | 97 | 86.1 | 108 | 114 | 104 | 101 | 113 | 103 | 90.8 | 100 | 98.9 | 111 | 101 | 104 | 103 | 98.1 | 104 |
| CCCc1nn(C)c2c(O)nc(-c3cc(S(=O)(=O)N4CCN(C)CC4)ccc3OCC)nc12 [Sildenafil] | 99.6 | 95.1 | 101 | 98.8 | 119 | 96.8 | 115 | 100 | 108 | 122 | 90.3 | 99.4 | 97.1 | 99.8 | 101 | 86.9 | 104 | 93.2 | 96.8 | 94.9 |
| Cc1coc2c1C(=O)C(=O)c1c-2ccc2c(C)cccc12 [Tanshinone I] | 101 | 89.7 | 108 | 103 | 97.2 | 121 | 97.3 | 107 | 106 | 92.7 | 109 | 102 | 98.9 | 103 | 90.1 | 111 | 103 | 97.3 | 98.6 | 91.5 |
| CCOC(=O)N1c2ccc(C(F)(F)F)cc2[C@@H](N(Cc2cc(C(F)(F)F)cc(C(F)(F)F)c2)C(=O)OC)C[C@H]1CC [Torcetrapib] | 103 | 105 | 147 | 84.6 | 53.3 | 102 | 96.9 | 134 | 103 | 109 | 103 | 97.6 | 99.4 | 101 | 92.2 | 103 | 99.4 | 102 | 99.1 | 99 |
